Blank lines part the entries; values can stand above or below the compound they belong to. Calls of active or inactive are those of the source.
Legend:
Leucine aminopeptidase = biological target: T1, Leucine aminopeptidase (Plasmodium falciparum 3D7, UniProt Q8IL11); test: P. falciparum M17LAP inhibitors, primary screen, biochemical, fluorogenic H-Leu-NHMec substrate, 1536-well (AID 1619); assay type: functional
T1 sequence (Q8IL11 whole entry): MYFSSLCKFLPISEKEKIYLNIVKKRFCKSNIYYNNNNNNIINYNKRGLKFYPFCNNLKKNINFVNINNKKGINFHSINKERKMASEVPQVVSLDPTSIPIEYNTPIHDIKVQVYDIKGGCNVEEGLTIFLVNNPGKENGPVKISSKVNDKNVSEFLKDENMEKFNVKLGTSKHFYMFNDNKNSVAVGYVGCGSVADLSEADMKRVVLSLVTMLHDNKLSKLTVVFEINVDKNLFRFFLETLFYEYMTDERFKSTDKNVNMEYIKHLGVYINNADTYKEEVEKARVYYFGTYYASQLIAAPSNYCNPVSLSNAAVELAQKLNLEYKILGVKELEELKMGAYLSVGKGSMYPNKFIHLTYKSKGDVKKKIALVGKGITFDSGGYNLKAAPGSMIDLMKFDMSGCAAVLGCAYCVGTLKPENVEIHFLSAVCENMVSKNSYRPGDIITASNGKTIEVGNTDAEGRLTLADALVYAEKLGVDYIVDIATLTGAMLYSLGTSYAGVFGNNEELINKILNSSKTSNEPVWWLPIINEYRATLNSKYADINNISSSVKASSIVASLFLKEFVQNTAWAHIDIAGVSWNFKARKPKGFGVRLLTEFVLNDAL

Aspartyl aminopeptidase = Aspartyl aminopeptidase (Plasmodium falciparum 3D7, UniProt Q8I2J3); test: Counterscreen for inhibitors of M1 and M17 aminopeptidases: QFRET-based biochemical high throughput dose response assay for inhibitors of the Plasmodium falciparum M18 Aspartyl Aminopeptidase (PFM18AAP). [Related PubChem assays: 1619 (Screening assay (M17LAP inhibitors).), 1445 (Screening assay (M1AAP inhibitors).)]
Procathepsin L = Procathepsin L (Homo sapiens, UniProt P07711); test: CTSL1 protease inhibition – biochemical, QFRET, 1536-well, counter-screen for M1/M17 aminopeptidase inhibitor project, dose response (AID 2214)
[1] = luciferase reporter signal suppression in cells – H4 neuroglioma cells, luminescence, dose response (AID 1990); assay type: functional, cell-based
HEK293 [2] = test: inhibition of NOD1-driven NF-kB reporter – cell-based, luminescence, uHTS, primary screen (AID 1578); assay type: functional; conditions: Homo sapiens
BJ [3] = test: BJ-TERT fibroblast viability loss – cell-based, RAS-independent, luminescence, dose response (AID 1933); assay type: functional; conditions: Homo sapiens
[4] = biological target: Luciferin 4-monooxygenase (Photinus pyralis, UniProt P08659); test: Counter Screen for Luciferase-based Assay Positives. [Related pubchem assays: 620, 618, 411 ]
HEK293 [5] = test: cells; assay type: functional, cell-based; conditions: Homo sapiens
BJ [6] = test: cells; assay type: functional, cell-based; conditions: Homo sapiens
HEK293 [7] = test: cells; assay type: functional, cell-based; conditions: Homo sapiens; remark: listed apart in the source
HEK293 [8] = test: NOD2 signaling inhibitors in MDP-stimulated cells, cell-based, uHTS, luminescence (AID 2001); assay type: functional; conditions: Homo sapiens
[9] = Luminescence-based dose response cell-based high throughput screening assay for cytotoxic compounds using the IEC-6 intestinal epithelial cell line. [Related pubchem assays: 1858 (Summary AID.), 1825 (Counterscreen.), 1907 (Confirmation screen.)]; assay type: functional
HT-1080 = test: HT1080 cell viability loss – fluorescence readout (AID 620); assay type: functional, cell-based; conditions: Homo sapiens
BJ [10] = test: BJ-TERT-LT-ST fibroblast viability loss – cell-based, RAS-independent, luminescence, dose response (AID 1935); assay type: functional; conditions: Homo sapiens;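 also: BJ fibroblasts immortalized with TERT plus LT and ST oncogenes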
[11] = DRD fibroblast viability loss – cell-based, non-viral oncogenic, luminescence, dose response (AID 1934); assay type: functional; conditions: Homo sapiens
[12] = biological target: Epstein-Barr nuclear antigen 1 (Epstein-Barr virus (strain B95-8) (HHV-4) (Human herpesvirus 4), UniProt P03211); test: inhibition of EBV nuclear antigen 1 DNA binding – biochemical, fluorescence polarization, 1536-well, dose response (AID 2381); design: species or system human gammaherpesvirus 4;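 also: fluorescence polarization of a Cy5 DNA probe bound by EBNA-1 protein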
[13] = biological target: Lytic switch protein BZLF1 (Epstein-Barr virus (strain B95-8) (HHV-4) (Human herpesvirus 4), UniProt P03206); test: inhibition of BZLF1 ZTA DNA binding – biochemical, fluorescence polarization, Epstein-Barr virus, 1536-well, counter-screen for EBNA-1 inhibitor project, dose response (AID 2377); design: species or system human gammaherpesvirus 4;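 also: fluorescence polarization of Cy5-labelled ZRE DNA probe bound by purified Zta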
Chain of Lytic switch protein BZLF1 (P03206 whole entry): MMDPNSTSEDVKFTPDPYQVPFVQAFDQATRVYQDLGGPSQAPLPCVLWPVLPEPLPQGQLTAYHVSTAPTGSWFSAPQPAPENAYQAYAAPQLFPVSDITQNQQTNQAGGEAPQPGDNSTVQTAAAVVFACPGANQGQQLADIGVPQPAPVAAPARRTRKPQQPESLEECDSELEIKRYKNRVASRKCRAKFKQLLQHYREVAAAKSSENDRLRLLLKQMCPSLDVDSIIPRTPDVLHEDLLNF

Chain of Epstein-Barr nuclear antigen 1 (P03211 whole entry): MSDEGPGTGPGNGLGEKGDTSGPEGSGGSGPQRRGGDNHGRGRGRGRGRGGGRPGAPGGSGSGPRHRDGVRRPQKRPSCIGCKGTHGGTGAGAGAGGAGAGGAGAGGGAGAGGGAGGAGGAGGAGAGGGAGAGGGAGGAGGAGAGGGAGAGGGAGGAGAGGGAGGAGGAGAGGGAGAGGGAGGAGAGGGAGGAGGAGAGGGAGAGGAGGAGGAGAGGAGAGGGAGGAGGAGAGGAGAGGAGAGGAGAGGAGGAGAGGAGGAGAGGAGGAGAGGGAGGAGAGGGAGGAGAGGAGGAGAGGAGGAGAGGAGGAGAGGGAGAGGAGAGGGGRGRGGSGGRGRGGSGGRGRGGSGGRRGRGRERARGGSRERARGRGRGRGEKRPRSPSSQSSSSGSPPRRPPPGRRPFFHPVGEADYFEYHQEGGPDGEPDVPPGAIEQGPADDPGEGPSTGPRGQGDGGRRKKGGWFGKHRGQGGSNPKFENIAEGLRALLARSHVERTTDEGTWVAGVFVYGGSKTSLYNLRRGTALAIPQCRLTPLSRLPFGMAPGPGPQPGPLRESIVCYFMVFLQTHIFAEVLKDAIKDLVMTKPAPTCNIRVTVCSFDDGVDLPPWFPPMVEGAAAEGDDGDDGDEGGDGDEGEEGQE
Chain of Aspartyl aminopeptidase (Q8I2J3 whole entry): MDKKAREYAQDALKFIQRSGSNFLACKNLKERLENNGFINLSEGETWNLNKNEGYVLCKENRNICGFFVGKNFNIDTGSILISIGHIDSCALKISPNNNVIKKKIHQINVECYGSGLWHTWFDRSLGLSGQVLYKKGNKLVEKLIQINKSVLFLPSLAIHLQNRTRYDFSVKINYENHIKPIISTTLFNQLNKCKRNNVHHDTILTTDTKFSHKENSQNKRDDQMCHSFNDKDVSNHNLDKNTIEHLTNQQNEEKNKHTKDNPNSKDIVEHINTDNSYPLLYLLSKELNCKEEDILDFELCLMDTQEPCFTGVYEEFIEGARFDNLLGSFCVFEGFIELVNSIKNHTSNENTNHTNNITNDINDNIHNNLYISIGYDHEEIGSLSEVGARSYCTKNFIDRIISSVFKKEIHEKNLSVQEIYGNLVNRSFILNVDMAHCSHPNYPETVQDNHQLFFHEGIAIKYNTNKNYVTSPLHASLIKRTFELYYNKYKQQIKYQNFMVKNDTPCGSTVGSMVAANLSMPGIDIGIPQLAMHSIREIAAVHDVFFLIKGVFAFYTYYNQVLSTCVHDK
Chain of Procathepsin L (P07711 whole entry): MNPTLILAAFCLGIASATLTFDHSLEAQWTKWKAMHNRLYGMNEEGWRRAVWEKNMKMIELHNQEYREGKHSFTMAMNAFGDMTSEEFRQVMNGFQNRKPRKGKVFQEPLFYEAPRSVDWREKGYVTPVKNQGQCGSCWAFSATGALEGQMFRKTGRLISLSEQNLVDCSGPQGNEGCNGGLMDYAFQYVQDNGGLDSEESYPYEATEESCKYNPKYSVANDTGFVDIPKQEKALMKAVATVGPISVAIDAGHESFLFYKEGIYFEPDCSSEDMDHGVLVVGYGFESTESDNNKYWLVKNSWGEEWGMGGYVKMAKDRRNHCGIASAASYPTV
Chain of Luciferin 4-monooxygenase (P08659 whole entry): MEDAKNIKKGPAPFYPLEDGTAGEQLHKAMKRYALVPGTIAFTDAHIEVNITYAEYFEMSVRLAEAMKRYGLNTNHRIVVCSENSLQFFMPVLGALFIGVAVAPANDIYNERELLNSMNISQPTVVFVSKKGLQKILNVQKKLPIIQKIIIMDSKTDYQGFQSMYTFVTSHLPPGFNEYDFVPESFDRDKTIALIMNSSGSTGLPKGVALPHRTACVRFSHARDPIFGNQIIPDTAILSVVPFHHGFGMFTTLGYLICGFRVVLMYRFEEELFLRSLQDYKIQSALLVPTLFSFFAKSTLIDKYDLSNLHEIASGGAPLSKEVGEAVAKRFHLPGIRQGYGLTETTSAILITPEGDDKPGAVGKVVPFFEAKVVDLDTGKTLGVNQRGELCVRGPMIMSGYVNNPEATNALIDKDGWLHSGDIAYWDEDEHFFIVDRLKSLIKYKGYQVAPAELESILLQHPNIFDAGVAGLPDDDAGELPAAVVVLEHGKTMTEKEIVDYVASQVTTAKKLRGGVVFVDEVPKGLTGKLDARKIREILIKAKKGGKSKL

IC50 (Leucine aminopeptidase): 1.57 µM (active)
IC50 (Aspartyl aminopeptidase): > 73.5 µM (not active)
IC50 (Procathepsin L): > 59.6 µM (not active)
SMILES: COc1cc(NC(=O)CSc2nc3ccccc3cc2C)c(C(=O)O)cc1OC

SMILES: COc1cccc(Cn2c(NCc3cccnc3)nc3c2c(=O)n(C)c(=O)n3C)c1
EC50 [1]: 12 µM (active)
EC50 (HEK293 [2]): > 20 µM (inactive)
EC50 (BJ [3]): > 150 µM (not active)
EC50 [4]: 39.5 µM (active)
IC50 (HEK293 [5]): > 20 µM (inactive)
EC50 (BJ [6]): 4.58 µM (inconclusive)
IC50 (HEK293 [7]): > 20 µM (inactive)
IC50 (HEK293 [8]): 14.6 µM (inactive)
IC50 [9]: 0.425 µM (active)
EC50 (HT-1080): > 50 µM (not active)
EC50 (BJ [10]): > 150 µM (inconclusive)
EC50 [11]: 5.5 µM (active)

IC50 [12]: 12 µM (not active)
IC50 [13]: > 111 µM (not active)
SMILES: O=C(CSc1nc2ccc(NC(=O)CSc3nnnn3-c3ccccc3)cc2s1)Nc1ccccc1

From ChEMBL document CHEMBL1201862, “PubChem BioAssay data set” (2004)
